The values below are quoted from earlier work in US20140350454A1, “IRRADIATION APPARATUS” (Photocure ASA, priority 2011, published 2014).

Where two headings read alike, the source gives them in different places.

Data set [1] relates to VIN. The settings on record: VIN patients, topical 5-ALA 20% w/w in Unguentum Merck, 4 hours incubation, 630 nm non-laser light.
The subject of another data set is lesions of VIN 1-3. The conditions noted are these: 25 patients, 111 lesions of VIN 1-3; 10 ml 5-ALA solution 20% w/w in saline, 4-5 hours under occlusion; 635 nm laser, 100 J/cm^2, 150 mW/cm^2; repeated PDT.
Data set [2] has as its system VIN. The settings on record: bioadhesive patch 38 mg/cm^2 5-ALA in dry form, in situ 4-6 hours; 630 nm non-laser lamp, 20-30 min, 100 J/cm^2; repeated PDT.

For `NCC(=O)CCC(=O)O` [5-ALA, 5-aminolevulinic acid], in the data set with VIN [1] (light dose 50 J/cm^2), the response rate entry was “unacceptably low”. Further, the clearance rate was 40-60% with VIN [1] (light dose 100 J/cm^2) and 52% in the data set with VIN [2]. For the same compound, the “complete response (of the patients)” value in the data set with lesions of VIN 1-3 is recorded as 52%.
